Measured values taken from ChEMBL document CHEMBL3102774, “Semisynthesis of salviandulin E analogues and their antitrypanosomal activity” (Bioorg Med Chem Lett, 2014).
In brackets after ≈: the same amount, converted by molar mass.

Tests used:
MRC5 = experiment: Cytotoxicity against human MRC5 cells; format: cell-based
[1] = Selectivity index, ratio of IC50 for human MRC5 cells to IC50 for Trypanosoma brucei brucei GUTat 3.1; format: toxicity, cell-based; details: read-out: Ratio IC50
[2] = test system: Trypanosoma brucei brucei; experiment: Antitrypanosomal activity against Trypanosoma brucei brucei GUTat 3.1 after 72 hrs by AlamarBlue assay; format: functional, organism-based; details: GUTat 3.1, 72 h

| IC50 [2] [µg/mL] | SMILES | IC50 (MRC5) [µg/mL] | selectivity ratio [1] |
| --- | --- | --- | --- |
|  | NCCCC(N)(C(=O)O)C(F)F (stereo not given) [EFLORNITHINE] | > 100 | > 44 |
| > 12.5 | CC1=C2C[C@@H](O)C[C@H]3C(=O)OC[C@@]23C=CC2=C1[C@H](c1ccoc1)OC2=O |  |  |
| 7.73 (≈ 19.5 µM) | CC(=O)O[C@@H]1CC2=C(C)C3=C(C=C[C@]24COC(=O)[C@@H]4C1)C(=O)O[C@H]3c1ccoc1 | > 100 | > 12.9 |
| 0.055 (≈ 0.13 µM) | CCCC(=O)O[C@@H]1CC2=C(C)C3=C(C=C[C@]24COC(=O)[C@@H]4C1)C(=O)O[C@H]3c1ccoc1 | 68 (≈ 160 µM) | 1240 |
| > 12.5 | COCO[C@@H]1CC2=C(C)C3=C(C=C[C@]24COC(=O)[C@@H]4C1)C(=O)O[C@H]3c1ccoc1 |  |  |
| 0.0017 (≈ 0.00499 µM) | N=C(N)c1ccc(OCCCCCOc2ccc(C(=N)N)cc2)cc1 [PENTAMIDINE] |  | 3350 |
| 0.69 (≈ 1.75 µM) | CC(=O)O[C@H]1C=C2C(=O)OC[C@]23C=CC2=C(C(C)=C3C1)[C@H](c1ccoc1)OC2=O | 0.84 (≈ 2.13 µM) | 1.22 |
| 0.2 (≈ 0.472 µM) | CCNC(=O)O[C@H]1C=C2C(=O)OC[C@]23C=CC2=C(C(C)=C3C1)[C@H](c1ccoc1)OC2=O | 0.18 (≈ 0.425 µM) | 0.9 |
| 10.5 (≈ 22.3 µM) | CC1=C2C[C@@H](OC(=O)Nc3ccccc3)C[C@H]3C(=O)OC[C@@]23C=CC2=C1[C@H](c1ccoc1)OC2=O | > 100 | > 9.5 |
| > 12.5 | CC1=C2C=CC[C@H]3C(=O)OC[C@@]23C=CC2=C1[C@H](c1ccoc1)OC2=O |  |  |
|  | Cc1ccc(C(=O)Nc2ccc(S(=O)(=O)O)c3cc(S(=O)(=O)O)cc(S(=O)(=O)O)c23)cc1NC(=O)c1cccc(NC(=O)Nc2cccc(C(=O)Nc3cc(C(=O)Nc4ccc(S(=O)(=O)O)c5cc(S(=O)(=O)O)cc(S(=O)(=O)O)c45)ccc3C)c2)c1 [SURAMIN] | > 100 | > 63 |
| 7.17 (≈ 15.2 µM) | CC1=C2C[C@@H](OC(=O)Nc3ccccc3)C=C3C(=O)OC[C@]32C=CC2=C1[C@H](c1ccoc1)OC2=O | 17.3 (≈ 36.6 µM) | 2.41 |
| 4.29 (≈ 10.9 µM) | CC(=O)OC1=CC2=C(C)C3=C(C=C[C@]24COC(=O)[C@@H]4C1)C(=O)O[C@H]3c1ccoc1 | 17.8 (≈ 45.1 µM) | 4.14 |
| 5.56 (≈ 13.6 µM) | CCC(=O)OC1=CC2=C(C)C3=C(C=C[C@]24COC(=O)[C@@H]4C1)C(=O)O[C@H]3c1ccoc1 | 22.6 (≈ 55.3 µM) | 4.06 |
| > 12.5 | CC1=C2CCC=C3C(=O)OC[C@]32CCC2=C1[C@H](c1ccoc1)OC2=O | 16.2 (≈ 47.8 µM) |  |
| 1.15 (≈ 2.9 µM) | COCO[C@H]1C=C2C(=O)OC[C@]23C=CC2=C(C(C)=C3C1)[C@H](c1ccoc1)OC2=O | 2 (≈ 5.05 µM) | 1.73 |
| 5.33 (≈ 13 µM) | CCC(=O)O[C@@H]1CC2=C(C)C3=C(C=C[C@]24COC(=O)[C@@H]4C1)C(=O)O[C@H]3c1ccoc1 | 63.5 (≈ 155 µM) | 11.9 |
| 0.72 (≈ 2.04 µM) | CC1=C2C[C@@H](O)C=C3C(=O)OC[C@]32C=CC2=C1[C@H](c1ccoc1)OC2=O | 0.84 (≈ 2.38 µM) | 1.17 |
| 7.77 (≈ 17.7 µM) | CCCNC(=O)O[C@@H]1CC2=C(C)C3=C(C=C[C@]24COC(=O)[C@@H]4C1)C(=O)O[C@H]3c1ccoc1 | 66.2 (≈ 151 µM) | 8.51 |
| 6.08 (≈ 13.5 µM) | CCCCNC(=O)O[C@H]1C=C2C(=O)OC[C@]23C=CC2=C(C(C)=C3C1)[C@H](c1ccoc1)OC2=O | 44.3 (≈ 98.1 µM) | 7.29 |
| > 12.5 | CCNC(=O)O[C@@H]1CC2=C(C)C3=C(C=C[C@]24COC(=O)[C@@H]4C1)C(=O)O[C@H]3c1ccoc1 |  |  |
| 2.39 (≈ 5.85 µM) | CCC(=O)O[C@H]1C=C2C(=O)OC[C@]23C=CC2=C(C(C)=C3C1)[C@H](c1ccoc1)OC2=O | 1.41 (≈ 3.45 µM) | 0.59 |
| 1.04 (≈ 2.46 µM) | CCCC(=O)O[C@H]1C=C2C(=O)OC[C@]23C=CC2=C(C(C)=C3C1)[C@H](c1ccoc1)OC2=O | 1.05 (≈ 2.49 µM) | 1.01 |
| 3.89 (≈ 9.21 µM) | CCCC(=O)OC1=CC2=C(C)C3=C(C=C[C@]24COC(=O)[C@@H]4C1)C(=O)O[C@H]3c1ccoc1 | 21.6 (≈ 51 µM) | 5.54 |
